Reference: BindingDB's records for patent US10308662 (Signal Rx Pharmaceuticals, 2019)

Target: T1, Bromodomain-containing protein 4 [349-460] (Homo sapiens, UniProt O60885)
T1 construct: 349-460
Assay: in vitro […] inhibition assay

IC50: 1870 nM
SMILES: CCOC(=O)c1ccc(-c2csc3c(=O)cc(N4CCSCC4)oc23)cc1 [US10308662, Compound 125]
